Here are results for eleven molecules from ChEMBL document CHEMBL1201862, “PubChem BioAssay data set” (2004).

Molecules are shown by their SMILES.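 Tested at 5 concentrations; 48 h exposure; 96-well plates; endpoints linearly interpolated, else capped at highest concentration. GI50 = concentration required for 50% inhibition of growth.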 The source made the active and inactive calls. No stated cut-off is given here; in the data, active = GI50 up to about 1.1 µM and inactive = higher. Where only a bound is given, the exact number is not on record here.

Test systems include SK-MEL-2; RXF 393; MOLT-4; KM12; COLO 205; SW-620; HOP-92; HL-60; A498; HT-29; NCI-H226; OVCAR-4; UACC-62; NCI-H460; A549; OVCAR-3; UO-31; HCC 2998; SF-295.
What all share (assay): NCI tumour cell line growth inhibition, 48 h

With `S=C(N/N=C(/c1ccccc1)c1ccccn1)N1CCCCC1`, the GI50 with SK-MEL-2 was 0.741 µM (active); with RXF 393, 1.28 µM (inactive); in the assay on MOLT-4 it was < 0.0135 µM (active); in the assay on KM12 it was < 0.0292 µM (active); in the assay on COLO 205, < 0.0214 µM (active); in the assay with SW-620, < 0.0226 µM (active). Moreover, the GI50 in the assay with HOP-92 is 0.546 µM (active); with HL-60, 0.01 µM (active); in the assay on A498 it was 0.407 µM (active); in the assay with HT-29 it was < 0.016 µM (active); in the assay with NCI-H226, 0.134 µM (active); in the assay with OVCAR-4, 1.5 µM (inactive). Also, the GI50 is 0.16 µM (active) with UACC-62; < 0.0211 µM (active) in the assay with NCI-H460; < 0.0302 µM (active) in the assay on A549; 0.01 µM (active) in the assay on OVCAR-3; 0.0716 µM (active) in the assay on UO-31; 0.219 µM (active) in the assay with HCC 2998. For the same molecule, the GI50 in the assay with SF-295 is < 0.031 µM (active).

Regarding `NC(=S)N/N=C/c1nccc2ccccc12`, the GI50 was 2.7 µM (inactive) in the assay with SK-MEL-2; 0.257 µM (active) with RXF 393; 0.461 µM (active) in the assay on MOLT-4; 0.873 µM (active) in the assay with KM12; 0.957 µM (active) with COLO 205; 0.802 µM (active) in the assay with SW-620. Besides, the GI50 with HOP-92 was 2.74 µM (inactive); in the assay on HL-60, 0.393 µM (active); in the assay on A498 it was 0.515 µM (active); with HT-29, 0.731 µM (active); in the assay on OVCAR-4, 0.54 µM (active); with UACC-62, 0.281 µM (active). For the same molecule, the GI50 is 0.415 µM (active) in the assay with NCI-H460; 0.409 µM (active) with A549; 0.307 µM (active) with OVCAR-3; 0.443 µM (active) in the assay with UO-31; 0.664 µM (active) in the assay with HCC 2998; 0.168 µM (active) in the assay with SF-295.

On to `Cc1ccc(CC(C)N)cc1` (stereo unspecified), for which the GI50 in the assay on SK-MEL-2, with RXF 393, in the assay on MOLT-4, in the assay on KM12, in the assay on COLO 205 and in the assay with SW-620 was > 100 µM (inactive) in each case. Further, the GI50 in the assay with HOP-92, in the assay with HL-60, in the assay on A498, in the assay on HT-29, in the assay on NCI-H226 and with OVCAR-4 was > 100 µM (inactive) each time. Besides, the GI50 with UACC-62, in the assay on NCI-H460, with A549, with OVCAR-3, in the assay on UO-31 and in the assay on HCC 2998 was > 100 µM (inactive) each time. For the same molecule, in the assay on SF-295, the GI50 is > 100 µM (inactive).

As to `CC1=Nc2ccccc2SC(c2c(Cl)cccc2Cl)C1` (stereo unspecified), the GI50 with RXF 393 is 1.34 µM (inactive); in the assay with MOLT-4, 0.49 µM (active); in the assay on KM12, 0.828 µM (active); in the assay on COLO 205 it was 1.58 µM (inactive); in the assay with SW-620, 0.43 µM (active); in the assay on HOP-92, 1.82 µM (inactive). In addition, the GI50 in the assay on HL-60 was 0.341 µM (active); with A498, 2.12 µM (inactive); with HT-29, 0.397 µM (active); in the assay with NCI-H226, 1.51 µM (inactive); in the assay on OVCAR-4, 1.98 µM (inactive); in the assay with UACC-62 it was 1.25 µM (inactive). The GI50 was 1.14 µM (inactive) with NCI-H460; 1.88 µM (inactive) in the assay with A549; 0.281 µM (active) in the assay on OVCAR-3; 1.71 µM (inactive) with UO-31; 1.6 µM (inactive) in the assay on HCC 2998; 1.34 µM (inactive) in the assay with SF-295.

Consider `CN(Cc1ccccc1)C1(N(C)Cc2ccccc2)CC1`, for which the GI50 in the assay on SK-MEL-2, in the assay on RXF 393, in the assay with MOLT-4, in the assay with KM12, in the assay with COLO 205 and in the assay with SW-620 was > 100 µM (inactive) in each case. The GI50 with HOP-92, in the assay with HL-60, with A498, with HT-29, in the assay on NCI-H226 and in the assay with OVCAR-4 was > 100 µM (inactive) each time. Moreover, the GI50 in the assay with UACC-62, with NCI-H460, with A549, with OVCAR-3, with UO-31 and in the assay with HCC 2998 was > 100 µM (inactive) throughout. For the same molecule, in the assay on SF-295, the GI50 was > 100 µM (inactive).

On to `COc1cc2c(c(O)c1C)C(=O)CC(c1ccccc1)O2` (stereo unspecified), for which the GI50 in the assay on SK-MEL-2 is 24.9 µM (inactive); with MOLT-4 it was 32.8 µM (inactive); with KM12 it was 62.8 µM (inactive); with SW-620 it was > 10 µM (inactive); with HOP-92 it was 13.4 µM (inactive); in the assay on A498 it was 64.1 µM (inactive). For the same molecule, the GI50 was > 10 µM (inactive) in the assay with HT-29; 18.4 µM (inactive) in the assay with NCI-H226; > 10 µM (inactive) in the assay with OVCAR-4; 47.9 µM (inactive) in the assay on UACC-62; > 10 µM (inactive) in the assay on NCI-H460; 56.6 µM (inactive) in the assay on A549. For the same molecule, the GI50 with OVCAR-3 is 48.1 µM (inactive); in the assay on UO-31 it was 23 µM (inactive); with HCC 2998, 79.8 µM (inactive); in the assay on SF-295 it was > 10 µM (inactive).

For `[O-][Cl+3]([O-])([O-])[O-].c1ccc(-c2[o+]c(-c3ccccc3)c(-c3ccccc3)c(-c3ccccc3)c2-c2ccccc2)cc1`, the GI50 in the assay on SK-MEL-2 is > 100 µM (inactive); in the assay with RXF 393 it was 12 µM (inactive); in the assay on MOLT-4 it was 44.7 µM (inactive); with COLO 205, > 100 µM (inactive); in the assay with SW-620, > 100 µM (inactive); in the assay with HOP-92, > 100 µM (inactive). The GI50 in the assay with HL-60, in the assay with A498, in the assay on HT-29, in the assay with NCI-H226, with OVCAR-4 and with UACC-62 was > 100 µM (inactive) throughout. In addition, the GI50 in the assay with NCI-H460, with A549, in the assay with OVCAR-3, with UO-31, in the assay on HCC 2998 and with SF-295 was > 100 µM (inactive) each time.

Take `O=C1CN(c2ccc(Cl)cc2)C(=O)CN1NCNN1CC(=O)N(c2ccc(Cl)cc2)CC1=O`: the GI50 in the assay with RXF 393, in the assay on MOLT-4, in the assay with KM12, in the assay on COLO 205, in the assay on SW-620 and with HOP-92 was > 100 µM (inactive) throughout. Further, the GI50 with HL-60, with A498, in the assay with HT-29, in the assay on OVCAR-4, in the assay on UACC-62 and in the assay with NCI-H460 was > 100 µM (inactive) each time. For the same molecule, the GI50 in the assay with A549, in the assay with OVCAR-3, in the assay with UO-31, in the assay with HCC 2998 and in the assay on SF-295 was > 100 µM (inactive) in each case.

Consider `COC(C)(C)C1=CCC(C)CC1` (stereo unspecified), for which the GI50 with RXF 393 is > 100 µM (inactive); in the assay with MOLT-4, 30 µM (inactive); with KM12 it was > 100 µM (inactive); in the assay with COLO 205, > 100 µM (inactive); with SW-620, > 100 µM (inactive); with HOP-92, > 100 µM (inactive). For the same molecule, the GI50 is > 10 µM (inactive) with HL-60; > 100 µM (inactive) in the assay with A498; > 100 µM (inactive) in the assay on HT-29; > 100 µM (inactive) with OVCAR-4; > 100 µM (inactive) in the assay with UACC-62; > 100 µM (inactive) in the assay with NCI-H460. The GI50 in the assay with A549, in the assay on OVCAR-3, in the assay on UO-31, in the assay on HCC 2998 and in the assay with SF-295 was > 100 µM (inactive) each time.

Regarding `CN(C(=O)c1ccc([N+](=O)[O-])cc1)c1ccccc1`, the GI50 was 21.6 µM (inactive) with RXF 393; > 100 µM (inactive) in the assay on MOLT-4; > 100 µM (inactive) in the assay on KM12; > 100 µM (inactive) in the assay on COLO 205; > 100 µM (inactive) in the assay with SW-620; > 100 µM (inactive) with HOP-92. For the same molecule, the GI50 with A498 is > 100 µM (inactive); with HT-29, > 100 µM (inactive); with NCI-H226, > 100 µM (inactive); in the assay with OVCAR-4 it was > 100 µM (inactive); in the assay on UACC-62, > 10 µM (inactive); with NCI-H460, > 100 µM (inactive). In addition, the GI50 in the assay on A549, in the assay with OVCAR-3, with UO-31, with HCC 2998 and in the assay with SF-295 was > 100 µM (inactive) throughout.

As for `O=C1C=C(Nc2cc(Cl)ccc2Cl)c2ccccc2C1=O`, the GI50 with SK-MEL-2 was 15.4 µM (inactive); in the assay with RXF 393, 55.5 µM (inactive); in the assay with KM12 it was 23 µM (inactive); in the assay on COLO 205, 36.1 µM (inactive); with SW-620, 29.3 µM (inactive); with HOP-92 it was 20.4 µM (inactive). The GI50 was 15.8 µM (inactive) with HL-60; 26.6 µM (inactive) with A498; 86.9 µM (inactive) in the assay on HT-29; 23.9 µM (inactive) in the assay with NCI-H226; 47.6 µM (inactive) with OVCAR-4; 16.9 µM (inactive) with UACC-62. Moreover, the GI50 in the assay on NCI-H460 was 25.9 µM (inactive); in the assay with A549 it was 35.9 µM (inactive); in the assay on OVCAR-3, 23 µM (inactive); with UO-31, 23.9 µM (inactive); in the assay with HCC 2998 it was 27.5 µM (inactive); in the assay with SF-295, 25.1 µM (inactive).
